Publication PMC8121762, “Peptidomics of enteroendocrine cells and characterisation of potential effects of a novel preprogastrin derived-peptide on glucose tolerance in lean mice” (Peptides, 2021)
Where two headings read alike, the source gives them in different places. Where a SMILES comes first, the peptide text is derived from it. [ ]: non-standard residue; d: D form. pGlu = O=C1CC[C@@H](C(=O)O)N1

How the values were obtained:
[1] = Pharmacokinetics studies in mice (i.v. and s.c. bolus, plasma LC–MS/MS); format: in vivo; conditions: mouse; for AUC: tail vein blood over 90 min
Experimental: Male and female mice aged between 12–18 weeks old were used for these studies. Gast p59−79, ChgA 435−462a and Sst 25−36 were administered intravenously (i.v.) at 1 mg/kg and subcutaneously (s.c.) at various doses (see Fig. 7A, B and C for details on specific doses for each peptide). Blood samples were collected using EDTA coated microvette tubes (Starsedt, Leicester, UK) from the tail vein at various time points over 90 min. Blood was centrifuged (2000 g, 10 min, 4 °C) and the plasma separated. A 0.1 M sodium citrate (Sigma-Aldrich) buffer (adjusted to pH 3 with citric acid (Sigma-Aldrich)) was added to the plasma at a dilution of 1 in 10 to prevent degradation of Gast p59−79 and Sst 25−36. Plasma was stored -70 °C till extraction.
On the day of analysis, plasma samples were thawed, spiked with a stable isotope labelled version of Gast p59−79, ChgA 435−462a or Sst 25−36, and crashed with 200 μL 80 % ACN. After centrifuging, supernatants were removed and dried under gaseous nitrogen at 40 °C using a SPE Dry evaporator system (Biotage, Upsalla, Sweden). SPE was performed as described previously.
A Xevo TQ-XS triple quadrupole mass spectrometer coupled to H-class Aquity UPLC system enabled high throughput and targeted sample analysis. The column used was a Waters HSS T3 2.1 × 50 mm column at 60 °C and flowing at 350 μL/min. LC–MS/MS analysis was performed using positive ESI with a spray voltage of 3 kV, desolvation temperature 600°C, gas flow rate 1000 L/h and cone voltage of 40 V. Solvent A was 0.1 % FA in water (v/v) and Solvent B was 0.1 % FA in ACN (v/v). Each sample (40 μL per sample) was injected onto the column for 30 s with starting conditions set at 90 % A and 10 % B before the % B was increased to 50 % over the course of 3.5 min. The column was flushed with 90 % B for 1.5 min before initial conditions were restored. Total run time per sample was 5.5 min. Table 1 details the specifications used to quantify Gast p59−79, ChgA 435−462a, Sst 25−36 and their stable isotope labelled versions on a Xevo TQ-XS mass spectrometer.
Raw data files obtained on the Xevo TQ-XS triple quadrupole mass spectrometer were analysed using TargetLynx XS v4.2 software (Waters). Peptides were quantified by integrating the corresponding peaks and normalised to an internal standard if available. For pharmacokinetics studies, the concentration of peptide was estimated by comparing against a calibration line. SAAM II v2.2.1 (The Epsilon Group) with a Rosenbrock integrator and no maximum number of iterations was used to create a model for Gast p59−79 distribution and elimination upon single dose administration to mice.

[2] = tested on: lean mice; experiment: 1st osmotic pump study: 28-day infusion, body weight, food intake, weekly IP GTT; format: in vivo, mouse; conditions: n = 5/group
Experimental: (§1) Three studies were performed to assess the in vivo efficacy of the ChgA 435−462a and Gast p59−79 (see Figure legends for specifics of each study). Peptides were administered by osmotic pumps implanted subcutaneously under isoflurane anaesthesia. Food intake was assessed using BioDaq (Research Diets) automated food intake cages. Intraperitoneal (IP) glucose tolerance tests (GTT) were performed by administering a 2 g/kg challenge of glucose and measuring blood glucose levels from the tail vein whereas oral GTT (OGTT) were performed using 1 g/kg glucose challenge. Insulin tolerance tests (ITT) were performed by administering a 0.75 U/kg dose of insulin IP to the mice and assessing blood glucose levels at 15, 30, 45, 60, 90 and 120 min post-insulin challenge.
Fig. 7 In vivo characterisation of novel peptides. (A-C) PK data of ChgA 435-462a, Gast p59-79, Sst 25-36. (D-G) Data from 1st osmotic pump study where n = 5/group. […] Body weights (E) and food intake (D) were measured throughout the study. Week 0 and day -7 represent baseline data prior to treatment onset. Glucose tolerance was assessed every 7 days after surgery via an IP GTT using a 2 g/kg glucose challenge. […] Statistical analysis performed using Kruskal-Wallis test with post-hoc Dunn tests. […] Mice singly housed and infused with either Gast p59-79 or vehicle for 7 days. […] Mice singly housed and infused with either Gast p59-79 or vehicle for 7 days. 2 g/kg IP GTT performed on day 7 (J, K) and 1 g/kg OGTT performed on day 14 (L, M). 0.75 U/kg ITT performed on day 21 (N, O). Body weights vs AUC during ITT on day 21 (P). Error bars represent SD. *P < 0.05, **p < 0.01, ***p < 0.005.

[3] = tested on: mice; experiment: Osmotic pump study 2: 7-day infusion, IP GTT; format: in vivo, mouse; conditions: osmotic pump 7 days, 2 g/kg IP GTT on day 7, n = 8/group, vs vehicle, T test
Experimental: as §1
Fig. 7 In vivo characterisation of novel peptides. (A-C) PK data of ChgA 435-462a, Gast p59-79, Sst 25-36. (D-G) Data from 1st osmotic pump study where n = 5/group. […] Body weights (E) and food intake (D) were measured throughout the study. Week 0 and day -7 represent baseline data prior to treatment onset. Glucose tolerance was assessed every 7 days after surgery via an IP GTT using a 2 g/kg glucose challenge. Results from IP GTT on day 28 shown in (F, G). Statistical analysis performed using Kruskal-Wallis test with post-hoc Dunn tests. (H, I) Results from osmotic pump study 2 where n = 8/group. […]

AUC ([1]; both sexes, C57BL/6 N J, iv, 1 mg/kg, plasma LC–MS/MS): 503 ng·h/mL
Clearance ([1]; both sexes, C57BL/6 N J, plasma, iv, i.v., 1 mg/kg, read-out: Clearance (converted)): 0.332
AUC ([1]; both sexes, C57BL/6 N J, sc, 10 mg/kg, plasma LC–MS/MS): 558 ng·h/mL
half-life ([1]; both sexes, C57BL/6 N J, sc, administered subcutaneously, plasma LC–MS/MS): 18.1 min
mass delivery rate required to obtain steady state concentration of 1 nM ([1]; estimated from PK data (SAAM II model), osmotic pump infusion): 0.77 mg/kg/day
Clearance ([1]; s.c., 10 mg/kg): 0.298 mL/min/kg
Bioavailability (%) ([1]; s.c., 10 mg/kg, plasma LC–MS/MS): 110%
bioavailability when administered subcutaneously (in words) ([1]; s.c., text summary of table S1): good bioavailability
SMILES: CC[C@H](C)[C@H](NC(=O)[C@H](Cc1ccccc1)NC(=O)[C@H](Cc1c[nH]cn1)NC(=O)[C@H](CCC(N)=O)NC(=O)[C@@H]1CCCN1C(=O)CNC(=O)[C@H](CCC(N)=O)NC(=O)[C@@H]1CCCN1C(=O)CNC(=O)[C@H](CC(C)C)NC(=O)[C@@H]1CCC(=O)N1)C(=O)N[C@@H](C)C(=O)N[C@@H](CC(=O)O)C(=O)N[C@@H](CC(C)C)C(=O)N[C@@H](CO)C(=O)N[C@@H](CCCCN)C(=O)N[C@@H](CCCCN)C(=O)N[C@@H](CCC(N)=O)C(=O)N[C@@H](CCCNC(=N)N)C(=O)N1CCC[C@H]1C(=O)N[C@@H](CCCNC(=N)N)C(=O)O [Gast p59−79] ([pGlu]LGPQGPQHFIADLSKKQRPR-OH; C-terminus assumed)
food intake compared with controls ([2]; 6-8 week old male mice, BioDAQ cages, osmotic pump 28 days, ChgA 435-462a 0.3, Gast p59-79 0.8, exenatide 0.03 mg/kg/day, vs PBS): No significant differences
body weight compared with controls ([2]; 6-8 week old male mice, osmotic pump 28 days, ChgA 435-462a 0.3, Gast p59-79 0.8, exenatide 0.03 mg/kg/day, vs PBS): No significant differences
IP GTT AUC analyses ([2]; lean male mice, Gast p59-79 0.8 mg/kg/day, IP GTT 2 g/kg, Kruskal-Wallis with Dunn tests): did not reach significance
glucose tolerance in IP GTT (blood glucose) ([2]; lean male mice, osmotic pump 28 days, IP GTT 2 g/kg glucose every 7 days, ChgA 435-462a 0.3, Gast p59-79 0.8, exenatide 0.03 mg/kg/day, vs PBS): Small but significant improvements in individual time point glucose levels
glucose tolerance in IP GTT, second mouse cohort [3]: modestly improves glucose tolerance
